Assay results: patent US20100143310A1, “SPINAL NERVE REPAIR PROMOTING THERAPEUTICS CONTAINING GHRELIN OR ITS DERIVATIVES OR SUBSTANCES THAT ACT ON GHS-R1a AS AN ACTIVE INGREDIENT” (JAPAN AS REPRESENTED BY PRESIDENT OF NATIONAL …, priority 2006, published 2010)
Where no end group is shown, it is not given here. The star is where a group is joined. Octanoyl = CCCCCCCC(=O)*

Legend:
[1] = system: spinal neuron proliferating action of ghrelin; test: Effect of L-type calcium channel blocker on the spinal neuron proliferating action of ghrelin; type: cell-based
[2] = system: cultured spinal neuronal precursor cells; test: BrdU incorporation into cultured spinal neuronal precursor cells (Cell Proliferation ELISA); type: cell-based, Wistar rat; conditions: for BrdU incorporation into cultured spinal neuronal precursor cells, Mean ± S.D.: incubation 12 hours, n=6, Control 100.0 ± 6.7; for concentration that increased the BrdU incorporation into the cells: 12 hours
Text: Embryos were extracted from a pregnant Wistar rat at day 17 by opening the abdomen under anesthesia. Spinal cords were collected from these embryos and subjected to papain digestion in Hank's balanced salt solution; as a result of subsequent mechanical separation by pipetting, a dispersion of embryonic spinal cord cells was obtained. After being filtered and centrifuged, the dispersed cells were suspended in a DMEM medium containing NaHCO3, 5% fetal bovine serum, penicillin (100 U/mL) and streptomycin (100 μg/mL), followed by plating onto laminin-coated 96-well multi-plates at 10^5 cells per well. After incubation for 4 days, 5-bromo-2'-deoxyuridine (BrdU) (10 μM) was added and incubation was conducted for 6 hours, followed by addition of rat ghrelin (0.003-300 nM) and subsequent incubation for 12 hours. After the end of incubation, the cells were recovered and using Cell Proliferation ELISA Kit (Roche Diagnostic GmbH, Mannheim, Germany), the amount of BrdU incorporation into the cells was measured to investigate the action of ghrelin on BrdU incorporation. Embryos were extracted from a pregnant Wistar rat at day 16 by opening the abdomen under anesthesia. Spinal cords were collected from these embryos and subjected to papain digestion in Hank's balanced salt solution; as a result of subsequent mechanical separation by pipetting, a dispersion of embryonic spinal cord cells was obtained. After being filtered and centrifuged, the dispersed cells were suspended in a DMEM medium containing NaHCO3, 5% fetal bovine serum, penicillin (100 U/mL) and streptomycin (100 μg/mL), followed by plating onto laminin-coated 96-well multi-plates at 10^5 cells per well. After incubation for 4 days, 5-bromo-2'-deoxyuridine (BrdU) (10 μM) was added and incubation was conducted for 6 hours; further, rat ghrelin, ghrelin(1-5)-Lys-NH2 (GSS(n-octanoyl)FLK-NH2), ghrelin(1-7)-Lys-NH2 ([…]) or MK-0677 having the structure indicated below was added in amounts of 0.03-3 nM and incubation was conducted for 12 hours before investigating the action of ghrelin on BrdU incorporation. After the end of incubation, the cells were recovered and using Cell Proliferation ELISA Kit (Roche Diagnostic GmbH, Mannheim, Germany), the amount of BrdU incorporation into the cells was measured to investigate the action of ghrelin on BrdU incorporation.

[3] = system: spinal neuronal precursor cells; test: Detection of BrdU positive cells with anti-BrdU antibody; type: cell-based, Wistar rat; conditions: FIG. 5, compared to the case where ghrelin was not allowed to act (physiological saline)
Text: Embryos were extracted from a pregnant Wistar rat at day 17 by opening the abdomen under anesthesia. Spinal cords were collected from these embryos and subjected to papain digestion in Hank's balanced salt solution; as a result of subsequent mechanical separation by pipetting, a dispersion of embryonic spinal cord cells was obtained. After being filtered and centrifuged, the dispersed cells were suspended in a DMEM medium containing NaHCO3, 5% fetal bovine serum, penicillin (100 U/mL) and streptomycin (100 μg/mL), followed by plating onto laminin-coated 96-well multi-plates at 10^5 cells per well. After incubation for 4 days, 5-bromo-2′-deoxyuridine (BrdU) (10 μM) was added and incubation was conducted for 6 hours, followed by addition of rat ghrelin (0.003-300 nM) and subsequent incubation for 12 hours.
After the end of incubation, the cells were fixed with methanol and glacial acetic acid, had their DNA denatured with 2 N HCl; thereafter, the BrdU incorporated into the cells was measured by detecting the BrdU positive cells using a rat anti-BrdU monoclonal antibody (1:1000, Abcam, Cambridge, UK) as a primary antibody, and also using Cy™ 3-conjugated donkey anti-rat IgG polyclonal antibody (1:1000, Jackson ImmunoResearch Laboratories, Inc., PA, USA) as a secondary antibody, in order to investigate the action of ghrelin for proliferating spinal precursor cells. […]

[4] = system: spinal neuronal precursor cells; test: Double immunostaining for Nestin or Map2 and BrdU in proliferating spinal cord cells; type: cell-based, Wistar rat; conditions: FIG. 3-1 A and B; BrdU in nuclei of Nestin-stained cells, not in Map2-stained cells
Procedure: Double immunostaining was conducted in order to confirm the co-presence of the neuronal precursor cell marker Nestin or the neutron marker Map2 and GHS-R in proliferating cells (cells that were incorporating BrdU).
Embryos were extracted from a pregnant Wistar rat at day 17 by opening the abdomen under anesthesia. Spinal cords were collected from these embryos and subjected to papain digestion in Hank's balanced salt solution; as a result of subsequent mechanical separation by pipetting, a dispersion of fetal spinal cord cells was obtained. After being filtered and centrifuged, the dispersed cells were suspended in a DMEM medium containing NaHCO3, 5% fetal bovine serum, penicillin (100 U/mL) and streptomycin (100 μg/mL), followed by plating onto laminin-coated 96-well multi-plates at 10^5 cells per well.
To the plates, 5-bromo-2′-deoxyuridine (BrdU) (10 μM) was added and incubation was conducted for 4 days to thereby incorporate the BrdU into the spinal cord cells. The spinal cord cells were fixed with methanol and glacial acetic acid at −20° C. for 20 minutes. After DNA denaturation with 2 M HCl, 2% normal goat serum in PBS was used to perform blocking at room temperature for 30 minutes. […]

[5] = system: rat models with injured spinal cord; test: Grafting spinal neuronal precursor cells and locally administering ghrelin to rat models with injured spinal cord; type: in vivo, SD rats
Procedure: In accordance with the procedure described in Morino, T. et al, Neuroscience Research, 2003, vol. 46, pp 309-318, the grafting of spinal neuronal precursor cells and local administration of ghrelin to rat models with injured spinal cord were assessed. Male SD rats (8 to 9 weeks old) were anesthetized with pentobarbital and incised in the back to expose a vertebra ([…]). After excising the vertebral arch, a dental drill was used to open a window with a diameter of […], and a stainless steel needle with a silicone rubber fixed thereto was applied vertically, followed by loading of the top with a 20-g weight. Following a compression time of 30 minutes, a damaging drop equivalent to a weight of about 100 g was finally applied from above to construct models suffering a movement disorder in the lower limbs. The animals were divided into three groups: 1) a group under sham operation; 2) a control group with injured spinal cord; and 3) a group with injured spinal cord, treated by cell grafting, and locally administered with ghrelin. The group under sham operation received laminectomy but was simply sutured in the muscle and skin thereafter. After injuring the spinal cord, cultured spinal neuronal precursor cells (10^5 cells/25 μL) were grafted subdurally. Rat ghrelin was administered subdurally in an amount of 1 nmol together with the cells.
Twenty-four hours after the operation, the rats were transferred into a see-through cage and observed for the frequency of their standing up (by 3-minute observation). More specifically, the frequency of the rat standing up (in such a posture that it lifted the upper limbs and supported the body weight only with the lower limbs) was counted to assess the function of its hind limbs.

COc1ccc([C@@H]2Sc3ccccc3N(CCN(C)C)C(=O)[C@@H]2OC(C)=O)cc1 [diltiazem] was tested, and the “suppression of the spinal neuron proliferating action of ghrelin” value [1] was “did not suppress”.
With “GSS(n-octanoyl)FLSPK-NH2 (GSS(Octanoyl)FLSPK-NH2; N-terminus assumed; SMILES CCCCCCCC(=O)OC[C@H](NC(=O)[C@H](CO)NC(=O)CN)C(=O)N[C@@H](Cc1ccccc1)C(=O)N[C@@H](CC(C)C)C(=O)N[C@@H](CO)C(=O)N1CCC[C@H]1C(=O)N[C@@H](CCCCN)C(N)=O) [Ghrelin (1-7)-Lys-NH2]” the “BrdU incorporation into cultured spinal neuronal precursor cells, Mean ± S.D.” value ([2]; 0.03 nM) was 108.3 ± 11.6, the “BrdU incorporation into cultured spinal neuronal precursor cells, Mean ± S.D.” value ([2]; 0.3 nM) was 115.9 ± 14.1 and the “BrdU incorporation into cultured spinal neuronal precursor cells, Mean ± S.D.” value ([2]; 3 nM) was 140.5 ± 41.9.
“Ghrelin: rat ghrelin: 28-residue peptide, third serine acylated with n-octanoyl; endogenous ligand of GHS-R1a (SEQ ID NO:3 or 4) (GSS(Octanoyl)FLSPEHQKAQQRKESKKPPAKLQPR)” was tested, and the “BrdU incorporation into cultured spinal neuronal precursor cells, Mean ± S.D.” value ([2]; 0.03 nM) was 112.5 ± 8.7, the “BrdU incorporation into cultured spinal neuronal precursor cells, Mean ± S.D.” value ([2]; 0.3 nM) was 112.0 ± 15.0 and the “BrdU incorporation into cultured spinal neuronal precursor cells, Mean ± S.D.” value ([2]; 3 nM) was 120.4 ± 7.9. The “concentration that increased the BrdU incorporation into the cells” value ([2]; Example 4, FIG. 4, rat ghrelin 0.003-300 nM tested) was ≥ 3 nM, the “BrdU positive cells detected” value [3] was “a large number of BrdU positive cells were detected” and the “cell type proliferated after treatment (BrdU with Nestin or Map2 double staining)” value [4] was “has an action for proliferating spinal neuronal precursor cells”. For the same compound, the “frequency of a rat standing up per unit time, 24 hours after operation” value ([5]; 24 hours after operation, rat ghrelin 1 nmol subdurally together with grafted cells (10^5 cells/25 μL), 3-minute observation, control group with injured spinal cord 1.3 ± 0.6) was 8.7 ± 4.2, the “function of hind limbs (frequency of standing up), result in words” value ([5]; combination of cell grafting and local administration of ghrelin) was “led to a recovery in the frequency of standing up” and the “frequency of a rat standing up per unit time, Initial” value ([5]; initial, 3-minute observation) was 11.7 ± 2.3.
With “GSS(n-octanoyl)FLK-NH2 (GSS(Octanoyl)FLK-NH2; N-terminus assumed; SMILES CCCCCCCC(=O)OC[C@H](NC(=O)[C@H](CO)NC(=O)CN)C(=O)N[C@@H](Cc1ccccc1)C(=O)N[C@@H](CC(C)C)C(=O)N[C@@H](CCCCN)C(N)=O) [Ghrelin (1-5)-Lys-NH2]” the “BrdU incorporation into cultured spinal neuronal precursor cells, Mean ± S.D.” value ([2]; 0.03 nM) was 106.9 ± 13.2, the “BrdU incorporation into cultured spinal neuronal precursor cells, Mean ± S.D.” value ([2]; 0.3 nM) was 114.2 ± 11.3 and the “BrdU incorporation into cultured spinal neuronal precursor cells, Mean ± S.D.” value ([2]; 3 nM) was 103.5 ± 9.6.
For CC(C)(N)C(=O)N[C@H](COCc1ccccc1)C(=O)N1CCC2(CC1)CN(S(C)(=O)=O)c1ccccc12 [MK-0677, reference compound], the “BrdU incorporation into cultured spinal neuronal precursor cells, Mean ± S.D.” value ([2]; 0.03 nM) was 119.5 ± 4.6, the “BrdU incorporation into cultured spinal neuronal precursor cells, Mean ± S.D.” value ([2]; 0.3 nM) was 112.0 ± 13.9 and the “BrdU incorporation into cultured spinal neuronal precursor cells, Mean ± S.D.” value ([2]; 3 nM) was 105.8 ± 13.0. For the same compound, the “concentration that increased the BrdU incorporation into the cells” value ([2]; Example 5, 0.03-3 nM tested) was 0.03 nM.
